The structures appear in SMILES notation. Active and inactive are the calls of the source. The rule behind the calls is not given here.

For assay [1], the system named is HT-29. Nature of the assay: Cytotoxicity against human HT-29 cells assessed as cell growth inhibition measured after 48 hrs by MTT assay. In kind it is functional, cell-based. The settings on record: HT-29, 48 h.
Another assay deals with CCD-18Co. The assay can be described thus: Cytotoxicity against human CCD-18Co cells assessed as cell growth inhibition measured after 48 hrs by MTT assay. It counts as cell-based.
Assay [2] in a line: Selectivity index, ratio of IC50 for human CCD-18Co cells to IC50 for human HT-29 cells assessed as cell growth inhibition measured after 48 hrs by MTT assay.
Assay [3] has as its system HT-29. The assay can be described thus: Antiproliferative activity against human HT-29 cells cultured as 3D spheroids assessed as inhibition of spheroid formation measured after 48 hrs by MTT assay. The settings on record: HT-29, 48 h. It counts as functional, cell-based.
Assay [4] has as its system HT-29. Nature of the assay: Antiproliferative activity in human HT-29 cells cultured as 3D spheroids assessed as reduction in 3D structure of spheroid morphology at IC50 measured after 48 hrs. It counts as functional, cell-based.
For assay [5], the system named is HT-29. The assay can be described thus: Antiproliferative activity in human HT-29 cells cultured as 3D spheroids assessed as gradual disaggregation of peripheral cells at IC50 measured after 48 hrs. In kind it is functional, cell-based.
The subject of assay [6] is HT-29. Nature of the assay: Anticlonogenic activity against human HT-29 cells assessed as inhibition of colony formation measured after 6 days by methylene blue staining based assay. The settings on record: dose 1.35-2.7 µM, time 6.0 day. In kind it is functional, cell-based.
The subject of assay [7] is HT-29. The assay can be described thus: Induction of cell cycle arrest in human HT-29 cells assessed as accumulation of cells at S phase at 2.7 uM measured after 24 hrs by propidium iodide staining based flow cytometry analysis (Rvb= 35.52%). In kind it is functional.
The subject of assay [8] is HT-29. Nature of the assay: Induction of cell cycle arrest in human HT-29 cells assessed as accumulation of cells at G1 phase at 2.7 uM measured after 24 hrs by propidium iodide staining based flow cytometry analysis (Rvb= 55.39%). In kind it is functional.
Assay [9] deals with HT-29. Nature of the assay: Induction of cell cycle arrest in human HT-29 cells assessed as accumulation of cells at G2 phase at 2.7 uM measured after 24 hrs by propidium iodide staining based flow cytometry analysis (Rvb= 9.09%). In kind it is functional.
For assay [10], the system named is HT-29. Nature of the assay: Induction of cell cycle arrest in human HT-29 cells assessed as accumulation of cells at S phase at 2.7 uM measured after 48 hrs by propidium iodide staining based flow cytometry analysis (Rvb= 35.52%). In kind it is functional.
For assay [11], the system named is HT-29. The assay can be described thus: Induction of cell cycle arrest in human HT-29 cells assessed as accumulation of cells at G1 phase at 2.7 uM measured after 48 hrs by propidium iodide staining based flow cytometry analysis (Rvb= 55.39%). It counts as functional.
Assay [12] deals with HT-29. The assay can be described thus: Induction of cell cycle arrest in human HT-29 cells assessed as accumulation of cells at G2 phase at 2.7 uM measured after 48 hrs by propidium iodide staining based flow cytometry analysis (Rvb= 9.09%). It counts as functional.
Assay [13] has as its system HT-29. The assay can be described thus: Induction of cell cycle arrest in human HT-29 cells assessed as accumulation of cells at S phase at 2.7 uM measured after 72 hrs by propidium iodide staining based flow cytometry analysis (Rvb= 35.52%). In kind it is functional.
Assay [14] deals with HT-29. Nature of the assay: Induction of cell cycle arrest in human HT-29 cells assessed as accumulation of cells at G1 phase at 2.7 uM measured after 72 hrs by propidium iodide staining based flow cytometry analysis (Rvb= 55.39%). In kind it is functional.
The subject of assay [15] is HT-29. The assay can be described thus: Induction of cell cycle arrest in human HT-29 cells assessed as accumulation of cells at G2 phase at 2.7 uM measured after 72 hrs by propidium iodide staining based flow cytometry analysis (Rvb= 9.09%). It counts as functional.
The subject of assay [16] is HT-29. Nature of the assay: Induction of apoptosis in human HT-29 cells assessed as viable cells at 2.7 uM measured after 24 hrs by FITC-annexin V/propidium iodide- double staining based flow cytometry analysis (Rvb= 83.8%). It counts as functional. The settings on record: read-out: Activity.
For assay [17], the system named is HT-29. Nature of the assay: Induction of apoptosis in human HT-29 cells assessed as early apoptotic cells at 2.7 uM measured after 24 hrs by FITC-annexin V/propidium iodide- double staining based flow cytometry analysis (Rvb= 12.8%). In kind it is functional.
Assay [18] concerns HT-29. Nature of the assay: Induction of apoptosis in human HT-29 cells assessed as late apoptotic cells at 2.7 uM measured after 24 hrs by FITC-annexin V/propidium iodide- double staining based flow cytometry analysis (Rvb= 3.0%). It counts as functional.
In assay [19] the test system is HT-29. Nature of the assay: Induction of apoptosis in human HT-29 cells assessed as dead cells at 2.7 uM measured after 24 hrs by FITC-annexin V/propidium iodide- double staining based flow cytometry analysis (Rvb= 0.4%). In kind it is functional.
In assay [20] the test system is HT-29. The assay can be described thus: Induction of apoptosis in human HT-29 cells assessed as viable cells at 2.7 uM measured after 48 hrs by FITC-annexin V/propidium iodide- double staining based flow cytometry analysis (Rvb= 83.8%). It counts as functional. The settings on record: read-out: Activity.
The subject of assay [21] is HT-29. The assay can be described thus: Induction of apoptosis in human HT-29 cells assessed as early apoptotic cells at 2.7 uM measured after 48 hrs by FITC-annexin V/propidium iodide- double staining based flow cytometry analysis (Rvb= 12.8%). In kind it is functional.
The test system of assay [22] is HT-29. Nature of the assay: Induction of apoptosis in human HT-29 cells assessed as late apoptotic cells at 2.7 uM measured after 48 hrs by FITC-annexin V/propidium iodide- double staining based flow cytometry analysis (Rvb= 3.0%). It counts as functional.
The test system of assay [23] is HT-29. The assay can be described thus: Induction of apoptosis in human HT-29 cells assessed as dead cells at 2.7 uM measured after 48 hrs by FITC-annexin V/propidium iodide- double staining based flow cytometry analysis (Rvb= 0.4%). In kind it is functional.
Assay [24] concerns HT-29. Nature of the assay: Induction of apoptosis in human HT-29 cells assessed as viable cells at 2.7 uM measured after 72 hrs by FITC-annexin V/propidium iodide- double staining based flow cytometry analysis (Rvb= 83.8%). It counts as functional. The settings on record: read-out: Activity.
Assay [25] relates to HT-29. Nature of the assay: Induction of apoptosis in human HT-29 cells assessed as early apoptotic cells at 2.7 uM measured after 72 hrs by FITC-annexin V/propidium iodide- double staining based flow cytometry analysis (Rvb= 12.8%). It counts as functional.
Assay [26] relates to HT-29. Nature of the assay: Induction of apoptosis in human HT-29 cells assessed as late apoptotic cells at 2.7 uM measured after 72 hrs by FITC-annexin V/propidium iodide- double staining based flow cytometry analysis (Rvb= 3.0%). It counts as functional.
The subject of assay [27] is HT-29. Nature of the assay: Induction of apoptosis in human HT-29 cells assessed as dead cells at 2.7 uM measured after 72 hrs by FITC-annexin V/propidium iodide- double staining based flow cytometry analysis (Rvb= 0.4%). It counts as functional.
The subject of assay [28] is HT-29. The assay can be described thus: Induction of apoptosis in human HT-29 cells assessed as activation of caspase-3 at 2.7 uM measured after 24 hrs by flow cytometry analysis (Rvb= 2.2%). It counts as functional.
Assay [29] relates to HT-29. Nature of the assay: Induction of apoptosis in human HT-29 cells assessed as activation of caspase-3 at 2.7 uM measured after 48 hrs by flow cytometry analysis (Rvb= 2.2%). It counts as functional.
Assay [30] has as its system HT-29. The assay can be described thus: Induction of apoptosis in human HT-29 cells assessed as activation of caspase-3 at 2.7 uM measured after 72 hrs by flow cytometry analysis (Rvb= 2.2%). It counts as functional.
For assay [31], the system named is HT-29. Nature of the assay: Induction of mitochondrial membrane potential loss in human HT-29 cells assessed as healthy cells at 2.7 uM measured after 24 hrs by JC-1 staining based flow cytometry analysis (Rvb= 91.4%). It counts as functional.
Assay [32] deals with HT-29. Nature of the assay: Induction of mitochondrial membrane potential loss in human HT-29 cells assessed as apoptotic cells at 2.7 uM measured after 24 hrs by JC-1 staining based flow cytometry analysis (Rvb= 8.6%). In kind it is functional.
For assay [33], the system named is HT-29. The assay can be described thus: Induction of mitochondrial membrane potential loss in human HT-29 cells assessed as healthy cells at 2.7 uM measured after 48 hrs by JC-1 staining based flow cytometry analysis (Rvb= 91.4%). It counts as functional.
Assay [34] deals with HT-29. Nature of the assay: Induction of mitochondrial membrane potential loss in human HT-29 cells assessed as apoptotic cells at 2.7 uM measured after 48 hrs by JC-1 staining based flow cytometry analysis (Rvb= 8.6%). In kind it is functional.
The subject of assay [35] is HT-29. Nature of the assay: Induction of mitochondrial membrane potential loss in human HT-29 cells assessed as healthy cells at 2.7 uM measured after 72 hrs by JC-1 staining based flow cytometry analysis (Rvb= 91.4%). In kind it is functional.
Assay [36] concerns HT-29. The assay can be described thus: Induction of mitochondrial membrane potential loss in human HT-29 cells assessed as apoptotic cells at 2.7 uM measured after 72 hrs by JC-1 staining based flow cytometry analysis (Rvb= 8.6%). In kind it is functional.
The target in the next assay is Tubulin (Homo sapiens) (UniProt P68371+Q9H4B7+P0DPH7+P68366+Q13509+Q71U36+P04350+Q3ZCM7+P07437+P68363+Q9BQE3+Q6PEY2+Q13885+Q9BVA1+Q9BUF5). The assay can be described thus: Induction of tubulin polymerization in human HT-29 cells assessed as stabilization of microtubules at 10 uM by spectrophotometric analysis. It counts as cell-based.
Assay [37] relates to KB. The assay can be described thus: Cytotoxicity against human vincristine-sensitive KB cells assessed as cell growth inhibition measured after 72 hrs by MTT assay. In kind it is functional, cell-based.
The test system of assay [38] is KB. The assay can be described thus: Cytotoxicity against human vincristine-resistant KB cells assessed as cell growth inhibition measured after 72 hrs by MTT assay. It counts as functional, cell-based.

As to `C/C=C1/CN2CC[C@]34c5cc([C@@H](C)[C@H]6[C@@H]7C[C@H]8c9c(c%10ccccc%10n9C)C[C@@H]([C@@H]7CO[C@@H]6O)N8C)c(OC)cc5N(C)[C@H]3[C@@H]2C[C@@H]1C4C(=O)OC` (stereo not given in full), the IC50 in the assay on HT-29 [1] was determined as 2500 nM; in the assay with CCD-18Co, 12200 nM; in the assay with HT-29 [3], 10000 nM. The “Ratio IC50” value in [2] was found to be 4.88. Also, the outcome in the assay on HT-29 [4], with HT-29 [5] and on Tubulin (Homo sapiens) was Active. Further, the Activity entry was “Dose-Dependent Effect” in the assay with HT-29 [6]; 34.12% in the assay on HT-29 [7]; 56.04% in the assay on HT-29 [8]; 9.84% in the assay with HT-29 [9]; 23.15% in the assay on HT-29 [10]; 67.84% in the assay with HT-29 [11]. The Activity in the assay with HT-29 [12] is recorded as 9.01%; in the assay on HT-29 [13], 13.77%; in the assay on HT-29 [14], 76.79%; with HT-29 [15], 9.44%; in the assay with HT-29 [17], 13.8%; in the assay on HT-29 [18] it was 9.8%. The Activity in the assay on HT-29 [19] is on record as 0.2%; in the assay on HT-29 [21] it was 28.2%; with HT-29 [22] it was 9.9%; in the assay on HT-29 [23], 0.2%; in the assay with HT-29 [25], 49.1%; with HT-29 [26] it was 25.6%. In addition, the Activity in the assay with HT-29 [27] turned out to be 0.2%; in the assay on HT-29 [28], 1.7%; in the assay on HT-29 [29], 8.2%; in the assay with HT-29 [30] it was 50.2%; in the assay on HT-29 [31], 88.7%; in the assay with HT-29 [32] it was 11.3%. Further, the Activity in the assay on HT-29 [33] is reported as 68.8%; with HT-29 [34], 31.2%; with HT-29 [35], 35.8%; in the assay on HT-29 [36] it was 64.2%. Moreover, the viability at 2.7 µM in the assay with HT-29 [16] was determined as 76.2%; in the assay with HT-29 [20], 61.8%; in the assay on HT-29 [24], 25.2%.
`CC[C@]1(O)C[C@H]2CN(CCc3c([nH]c4ccccc34)[C@@](C(=O)OC)(c3cc4c(cc3OC)N(C=O)[C@H]3[C@@](O)(C(=O)OC)[C@H](OC(C)=O)[C@]5(CC)C=CCN6CC[C@]43[C@@H]65)C2)C1` [VINCRISTINE]: the IC50 in the assay with KB [37] was 0.8 nM; in the assay with KB [38] it was 800 nM.

(Values after ChEMBL document CHEMBL4837192, “The Bisindole Alkaloids Angustilongines M and A from Alstonia penangiana Induce Mitochondrial Apoptosis and G0/G1 Cell Cycle Arrest in HT-29 Cells through Promotion of Tubulin Polymerization” (J Nat Prod, 2021).)
